Key:
[1] = TNS fluorescence pH titration: apparent pKa and % charged of aminolipids in liposomal membranes; format: physicochemical; details: for Apparent pKa: in liposomes, from fit of TNS fluorescence titrations to Henderson-Hasselbach equation; for pKa's and relative charges at pH 7.5 (in words): compared with AL-1; for pKa in the lipid bilayer (text / figure legend): TNS fluorescence titration, 10 mole % AL-1 in EPC/Chol (55:45), no pH gradient (nigericin)
Description: Preparations were diluted to 0.25 mM total lipid in 5 mM HEPES, 5 mM ammonium, 2 μM TNS at pHs ranging from 3.0 to 10.0 The pH across the vesicle membranes was rendered equal by adding nigericin to a final concentration of 0.01 μM. The TNS fluorescence at each pH value was determined under the conditions given above.
*The data were derived from TNS fluorescence titrations. Curves for each
aminolipid were fitted to the HendersonHasselbach equation by iteratively
varying pKa and maximum and minimum fluorescence.

[2] = Lipid-mixing fusion assay by RET fluorescent probe dilution, EPC/DOPE/Chol liposomes; details: for order of fusion traces, uppermost-lowermost / fusion of liposomes / fusion rate (in words): 5 mole % aminolipid, FIG. 9; for order of fusion traces, uppermost-lowermost: EPC/Chol/DOPE (35:20:45); for fusion of liposomes / fusion rate (in words): EPC/DOPE/Chol (35:20:45)
Description: (§1) Fusion was monitored by the decrease in resonance energy transfer (RET) resulting from fluorescent probe dilution, as described by Struck et al. (1981). […] The external buffer was 20 mM HEPES (150 mM NaCl, pH 7.5). […] Labeled and unlabeled liposomes were mixed in a 1:3 ratio, and diluted to 0.2 mM total lipid. External buffer was exchanged for 300 mM sucrose, 1 mM citrate, pH 4.0, on Sephadex G-25 columns before diluting preparations to 10 mM lipid. For fusion assays, 20 μl of fluorescently labeled liposomes, and 60 μl unlabeled liposomes, were added to 3.92 ml of 20 mM HEPES, 150 mM NaCl, pH 7.5. After 5 min. of incubation at room temperature, a 3 ml aliquot was added to a cuvette, and the fluorescence was monitored over 5 minutes. Excitation and emission wavelengths were 465 and 535 nm, respectively, and an emission 530 nm cutoff filter was used. To dissipate the gradient and induce fusion, ammonium acetate was added to a final concentration of 100 mM at 30 seconds. The percent change in fluorescence (% F/Fmax) was determined by assigning zero fluorescence (F0) to a trace with no ammonium acetate added and Fmax to a trace measured after adding 100 μl of 25 mM Triton X-100, so that:
(§2) % (F/Fmax)=100×((F-F0)/(Fmax -F0))
To study the effect of aminolipid structure on the fusion of EPC/Chol/DOPE liposomes (35:20:45) liposomes were prepared with 5 mole % of the indicated aminolipid (AL-1-AL-6), an internal pH 4.0, 300 mM sodium citrate buffer, and an external 20 mM HEPES buffer (150 mM NaCl, pH 7.5). Fusion assays were carried out as described above.
(§3) Membrane fusion was monitored by a loss in RET between the fluorescently labeled lipids NBD-PE and Rh-PE. When liposomes containing both of these labels fuse with unlabeled liposomes, the resulting dilution of the fluorescent probes gives increased fluorescence for NBD-PE.

[3] = Lipid asymmetry (transport of aminolipid to the inner monolayer) by TNS fluorescence; format: physicochemical; details: internal pH 4, external pH 7.5
Description: Aliquots of 90 μl were added to 2.9 ml of 20 mM HEPES, 150 mM NaCl, 5 μM TNS, pH 7.5, and fluorescence was monitored over 5 minutes.
However, at higher concentrations, the fluorescence levels off and begins to decrease.
The slow decreases in fluorescence observed in these curves is a result of photobleaching of TNS during the course of the experiments. […] The rapid movement of the AL-1 across the bilayer is advantageous for its use in controlling fusion.

[4] = Lipid-mixing fusion assay by RET fluorescent probe dilution, EPC/Chol (55:45) liposomes; details: for ΔF/ΔFmax (fusion): pH gradient dissipated by ammonium acetate
Description: as §1, §2
The labeled and unlabeled liposomes were mixed in a 1:3 ratio and diluted to 0.20 mM total lipid. The pH gradient was dissipated by the addition of ammonium acetate to a final concentration of 100 mM at 30 seconds.
as §3

[5] = Aggregation / stability of aminolipid-containing liposomes; format: physicochemical
[6] = 2H-NMR phase behavior of AL-1-d4 in MLVs; format: physicochemical; details: for phase behavior by 2H-NMR (in words): 10 mole % AL-1-d4 in EPC/Chol (55:45)
Description: Freeze-thawed MLVs of 10 mole % AL-1-d4 in EPC/Chol (55:45) were prepared as described above in 100 mM ammonium acetate at pH 4.0 and pH 7.5 in deuterium-depleted water. Sample concentrations were approximately 150 mM total lipid. Broad line quadrupole spectra were recorded on a Bruker MSL200 spectrometer at 30.7 MHz, using a spin-echo sequence with a 5.3 μs 90° pulse and a 200 ms repeat delay. Temperature was maintained at 20° C. with a liquid nitrogen flow system. […] FIDs were transformed using 100 Hz line-broadening.
Freeze-thawed MLVs containing 5 mole percent AL-1-d4 in EPC/Chol (55:45) were prepared in 20 mM HEPES, 20 mM ammonium acetate, 150 mM NaCl, pH 4.0 and pH 7.5, using deuterium-depleted water. Sample concentrations were approximately 200 mM total lipid. ^2 H-NMR broadline spectra were recorded at 46.175 MHz, on a home-built 300 MHz spectrometer using a 5 μs 90° pulse, 50 μs interpulse spacing, 30.5 μs ring-down delay, and a 300 ms repetition time. A quadrupole echo sequence with eight-step phase cycling was used to accumulate 200,000 scans. The resulting free induction decay (FID) was transformed with 100 Hz line-broadening. High resolution ^31 P spectra were recorded at 81 MHz on a Bruker MSL200 spectrometer, using a 2.8 μs pulse and 30 s repeat. Temperature was maintained at 23 degrees Celsius with a liquid nitrogen flow system. The FID was accumulated over 1000 scans, and transformed with 50 Hz line broadening.
The use of MLVs in this experiment avoids the rapid tumbling of LUVs on the NMR time scale. […] At pH 7.5, the bilayer signal is no longer present, and a strong isotropic peak appears in the middle of the spectrum.

[7] = Lipid-mixing fusion assay by RET fluorescent probe dilution, EPC/DOPE/Chol liposomes
[8] = Table 1, from TNS fluorescence titrations
[9] = 10 mole % AL-1 in EPC/Chol (55:45)

CCCCCCCC/C=C\CCCCCCCC(=O)OCC(CN(C)C)OC(=O)CCC (racemic) [AL-4]
Apparent pKa ([1]; Table 1): 6.66 | % Charged at pH 7.5 [1, 8]: 13% | pKa's and relative charges at pH 7.5 (in words) [1]: approach those for AL-1 | order of fusion traces, uppermost-lowermost [2]: AL-1, AL-5, AL-4, AL-3, AL-6, AL-2 and blank | fusion of liposomes / fusion rate (in words) [2]: further increases in the fusion rate, with rates approaching those achieved with AL-1--containing liposomes

CCCCCCCC/C=C\CCCCCCCC(=O)OCC(O)CN(C)C (racemic) [AL-2, ±-oleoyl-2-hydroxy-3-N,N-dimethylaminopropane]
pKa in the lipid bilayer (text / figure legend) [1]: about 7.57 | Apparent pKa ([1]; Table 1): 7.57 | % Charged at pH 7.5 [1, 8]: 54% | order of fusion traces, uppermost-lowermost [2]: AL-1, AL-5, AL-4, AL-3, AL-6, AL-2 and blank | fusion of liposomes / fusion rate (in words) [2]: little increase in liposome fusion in comparison with liposomes not containing aminolipid

CCCCCCCC/C=C\CCCCCCCC(=O)OCC(CN(C)C)OC(C)=O (racemic) [AL-3]
pKa in the lipid bilayer (text / figure legend) [1]: 6.79 | % Charged at pH 7.5 [1, 8]: 16% | % Charged at pH 7.5 [1]: 16% | order of fusion traces, uppermost-lowermost [2]: AL-1, AL-5, AL-4, AL-3, AL-6, AL-2 and blank | fusion of liposomes / fusion rate (in words) [2]: substantially greater fusion rate

CCCCCCCC/C=C\CCCCCCCC(=O)OCC(CN(C)C)OC(=O)CCCCCCC/C=C\CCCCCCCC (centres unmarked) [AL-1, 1-N,N-dimethylamino dioleoyl propane]
time until TNS fluorescence equal to that of EPC/Chol liposomes (virtually all AL-1 moved to the inner monolayer) [3, 9]: four | transbilayer movement to the inner monolayer (in words) ([3]; pH gradient): virtually all of the AL-1 had moved to the inner monolayer | ΔF/ΔFmax (fusion) ([4]; 10 mole % AL-1, EPC/Chol (55:45)): ~3% | ΔF/ΔFmax (fusion) ([4]; 20 mole % AL-1, EPC/Chol (55:45)): ~3% | degree of fusion (in words) ([4]; AL-1 in EPC/Chol (55:45)): limited degree of fusion | ΔF/ΔFmax (fusion) ([2]; 5 mole % AL-1, EPC/DOPE/Chol (35:20:45), first 5 minutes): greater than 10% | order of fusion traces, uppermost-lowermost [2]: AL-1, AL-5, AL-4, AL-3, AL-6, AL-2 and blank | liposome stability (in words) ([5]; 5 mole % AL-1, EPC/DOPE/Chol (35:20:45), pH 4.0 and external pH 7.5): stable liposomes were prepared, and these remained stable when the external pH was increased to 7.5 | liposome aggregation (in words) ([5]; 10 mole % AL-1, EPC/DOPE/Chol 35:20:45, low pH): some aggregation of liposomes was observed at low pH | liposome aggregation (in words) ([5]; 10 mole % AL-1, EPC/DOPE/Chol, DOPE above 35:20:45): rapid aggregation | liposome aggregation (in words) [5, 9]: aggregated | liposome aggregation (in words) ([5]; AL-1 greater than about 20 mole % in EPC/Chol, following extrusion): rapid and complete liposome aggregation | phase behavior by 2H-NMR (in words) ([6]; pH 7.5): exists in separate fluid domains at pH 7.5 | fusion rate with increasing DOPE (in words) ([7]; 10 mole % AL-1, DOPE replacing EPC up to 35:20:45 EPC/DOPE/Chol, FIG. 6): Increasing fusion rates were evident with increasing DOPE concentrations | ΔF/ΔFmax (fusion) ([7]; 10 mole % AL-1, EPC/DOPE/Chol 35:20:45, after 5 minutes): over 5% | ΔF/ΔFmax (fusion) ([7]; 10 mole % AL-1, EPC/DOPE/Chol (30:25:45), over 5 minutes after gradient dissipation): ~10%

CCCCCCCCCC(=O)OCC(CN(C)C)OC(=O)CCCCCCCCC (racemic) [AL-6, ±-1,2-didecanoyl-1-N,N,-dimethyl-aminopropane]
% Charged at pH 7.5 [1, 8]: 17% | pKa's and relative charges at pH 7.5 (in words) [1]: approach those for AL-1 | order of fusion traces, uppermost-lowermost [2]: AL-1, AL-5, AL-4, AL-3, AL-6, AL-2 and blank | fusion of liposomes / fusion rate (in words) [2]: only limited mixing

CCCCCCCC/C=C\CCCCCCCC(=O)OCC(CN(C)C)OC(=O)CCCCCCCCC (racemic) [AL-5]
% Charged at pH 7.5 [1, 8]: 14% | pKa's and relative charges at pH 7.5 (in words) [1]: approach those for AL-1 | order of fusion traces, uppermost-lowermost [2]: AL-1, AL-5, AL-4, AL-3, AL-6, AL-2 and blank | fusion of liposomes / fusion rate (in words) [2]: further increases in the fusion rate, with rates approaching those achieved with AL-1--containing liposomes

[2H]/C(CCCCCCCC)=C(\[2H])CCCCCCCC(=O)OCC(CN(C)C)OC(=O)CCCCCCC/C([2H])=C(/[2H])CCCCCCCC (racemic) [AL-1-d4, rac-1-N,N-dimethylamino-2,3-bis(9,10-dideuteriooleoyl)propane]
2H-NMR quadrupolar splitting of signal believed to arise from aminolipid in HII phase ([6]; 5 mole % AL-1-d4, EPC/DOPE/Chol, pH 7.5, FIG. 8A): about 12 kHz | phase behavior by 2H-NMR (in words) ([6]; pH 4.0): quadrupolar splittings for the chain-labeled positions of AL-1-d4, with the expected magnitude for lipid in the bilayer
